Activity calls are given as the source filed them. The calls are words filed in the database; no cut-off is given here.
Key:
Androgen receptor [1] = target: T1, Androgen receptor (Homo sapiens, UniProt P10275)
T1 sequence (P10275 whole entry): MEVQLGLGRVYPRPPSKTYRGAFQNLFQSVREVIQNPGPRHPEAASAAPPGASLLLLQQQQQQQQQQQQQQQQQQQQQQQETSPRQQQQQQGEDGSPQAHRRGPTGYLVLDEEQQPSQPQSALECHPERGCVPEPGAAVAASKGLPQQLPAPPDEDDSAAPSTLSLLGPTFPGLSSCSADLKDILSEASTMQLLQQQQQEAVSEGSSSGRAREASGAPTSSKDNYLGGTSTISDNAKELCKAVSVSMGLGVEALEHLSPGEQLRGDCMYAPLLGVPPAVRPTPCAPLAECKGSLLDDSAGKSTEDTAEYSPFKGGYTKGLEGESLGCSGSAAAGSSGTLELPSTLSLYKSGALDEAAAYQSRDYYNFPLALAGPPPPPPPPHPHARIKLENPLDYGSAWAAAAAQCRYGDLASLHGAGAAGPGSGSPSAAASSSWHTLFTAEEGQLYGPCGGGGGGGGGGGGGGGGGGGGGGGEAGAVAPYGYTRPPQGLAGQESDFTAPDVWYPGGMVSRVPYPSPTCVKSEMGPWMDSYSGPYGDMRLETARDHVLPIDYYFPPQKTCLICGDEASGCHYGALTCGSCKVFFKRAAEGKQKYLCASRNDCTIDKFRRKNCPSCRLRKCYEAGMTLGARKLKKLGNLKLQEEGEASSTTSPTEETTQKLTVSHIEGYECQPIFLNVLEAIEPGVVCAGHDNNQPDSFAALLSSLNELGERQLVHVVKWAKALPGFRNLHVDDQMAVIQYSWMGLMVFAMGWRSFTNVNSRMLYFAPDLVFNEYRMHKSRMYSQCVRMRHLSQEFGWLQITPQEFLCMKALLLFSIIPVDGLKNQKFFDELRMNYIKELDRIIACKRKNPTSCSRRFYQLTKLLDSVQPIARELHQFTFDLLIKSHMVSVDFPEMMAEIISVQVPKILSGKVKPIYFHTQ
Description: Antagonist activity at human androgen receptor in CV1 cells by transcriptional activation assay

Androgen receptor [2] = target: T1, Androgen receptor; remark: listed apart in the source
Description: Agonist activity at human androgen receptor in CV1 cells by transcriptional activation assay

Androgen receptor [3] = target: T1, Androgen receptor; test: biochemical
Description: Displacement of [3H]DHT from human Androgen receptor in human MDA-MB-453 cells

Rattus norvegicus [4] = test: Effect on Levator ani muscle weight maintenance in orchidectomized Sprague-Dawley rat at 10 mg/kg, po; format: functional, organism-based; set-up: dose 10 mg/kg
[5] = Metabolic stability in rat liver microsome at 5 uM; format: ADME; conditions: liver microsomes
Rattus norvegicus [6] = test: Effect on Levator ani muscle weight maintenance in orchidectomized Sprague-Dawley rat at 3 mg/kg, po; format: functional, organism-based; set-up: dose 3 mg/kg

SMILES: O=c1cc(C(F)(F)F)c2cc3c(cc2[nH]1)OC[C@H](CO)N3CC(F)(F)F
- IC50 (Androgen receptor [1]): 165 nM
- EC50 (Androgen receptor [2]): 6.6 nM
- Ki (Androgen receptor [3]): 22 nM

SMILES: O=c1cc(C(F)(F)F)c2cc3c(cc2[nH]1)OCC(C(F)F)N3CC(F)(F)F (racemic)
- EC50 (Androgen receptor [2]): 1.3 nM
- Ki (Androgen receptor [3]): 6.6 nM

SMILES: Cc1ccc([C@H]2COc3cc4[nH]c(=O)cc(C(F)(F)F)c4cc3N2CC(F)(F)F)cc1
- IC50 (Androgen receptor [1]): 44 nM

SMILES: CCCOCC1COc2cc3[nH]c(=O)cc(C(F)(F)F)c3cc2N1CC(F)(F)F (racemic)
- EC50 (Androgen receptor [2]): 4.2 nM

SMILES: COC[C@@H]1COc2cc3[nH]c(=O)cc(C(F)(F)F)c3cc2N1CC(F)(F)F
- EC50 (Androgen receptor [2]): 2 nM
- Ki (Androgen receptor [3]): 9.4 nM

SMILES: O=c1cc(C(F)(F)F)c2cc3c(cc2[nH]1)OC[C@@H](c1ccccc1)N3CC(F)(F)F
- EC50 (Androgen receptor [2]): 5.3 nM
- Ki (Androgen receptor [3]): 1.3 nM

SMILES: CCOCC1COc2cc3[nH]c(=O)cc(C(F)(F)F)c3cc2N1CC(F)(F)F (racemic)
- EC50 (Androgen receptor [2]): 3.2 nM

SMILES: O=c1cc(C(F)(F)F)c2cc3c(cc2[nH]1)OC[C@@H](C(F)(F)F)N3CC(F)(F)F
- IC50 (Androgen receptor [1]): 34 nM
- EC50 (Androgen receptor [2]): 42 nM
- Ki (Androgen receptor [3]): 281 nM

SMILES: COC[C@H]1COc2cc3[nH]c(=O)cc(C(F)(F)F)c3cc2N1CC(F)(F)F
- IC50 (Androgen receptor [1]): 17 nM
- EC50 (Androgen receptor [2]): 77 nM
- Ki (Androgen receptor [3]): 109 nM

SMILES: O=c1cc(C(F)(F)F)c2cc3c(cc2[nH]1)OC[C@@H](CC(F)(F)F)N3CC(F)(F)F
- EC50 (Androgen receptor [2]): 23 nM
- Ki (Androgen receptor [3]): 18 nM

SMILES: Cc1cccc([C@H]2COc3cc4[nH]c(=O)cc(C(F)(F)F)c4cc3N2CC(F)(F)F)c1
- IC50 (Androgen receptor [1]): 574 nM
- Ki (Androgen receptor [3]): 180 nM

SMILES: Cc1ccc([C@@H]2COc3cc4[nH]c(=O)cc(C(F)(F)F)c4cc3N2CC(F)(F)F)cc1
- EC50 (Androgen receptor [2]): 36 nM

SMILES: O=c1cc(C(F)(F)F)c2cc3c(cc2[nH]1)OC[C@H](CF)N3CC(F)(F)F
- Activity (Rattus norvegicus [4]): Active
- EC50 (Androgen receptor [2]): 3.8 nM
- half-life at 5 µM [5]: 34 min
- Ki (Androgen receptor [3]): 2.6 nM

SMILES: CSCC[C@@H]1COc2cc3[nH]c(=O)cc(C(F)(F)F)c3cc2N1CC(F)(F)F
- EC50 (Androgen receptor [2]): 23 nM
- Ki (Androgen receptor [3]): 2.4 nM

SMILES: Cc1cccc([C@@H]2COc3cc4[nH]c(=O)cc(C(F)(F)F)c4cc3N2CC(F)(F)F)c1
- EC50 (Androgen receptor [2]): 19 nM
- Ki (Androgen receptor [3]): 1.1 nM

SMILES: O=c1cc(C(F)(F)F)c2cc3c(cc2[nH]1)OC[C@@H](Cc1ccccc1)N3CC(F)(F)F
- IC50 (Androgen receptor [1]): 51 nM

SMILES: O=c1cc(C(F)(F)F)c2cc3c(cc2[nH]1)OC[C@H](C(F)(F)F)N3CC(F)(F)F
- Activity (Rattus norvegicus [6]): Active
- EC50 (Androgen receptor [2]): 2 nM
- half-life at 5 µM [5]: 100 min
- Ki (Androgen receptor [3]): 5.9 nM

SMILES: O=c1cc(C(F)(F)F)c2cc3c(cc2[nH]1)OC[C@H](c1ccccc1)N3CC(F)(F)F
- IC50 (Androgen receptor [1]): 340 nM
- Ki (Androgen receptor [3]): 150 nM

SMILES: N#CCC1COc2cc3[nH]c(=O)cc(C(F)(F)F)c3cc2N1CC(F)(F)F (racemic)
- EC50 (Androgen receptor [2]): 30 nM
- Ki (Androgen receptor [3]): 18 nM

SMILES: O=c1cc(C(F)(F)F)c2cc3c(cc2[nH]1)OCC(C(F)(F)F)N3CC(F)(F)F (racemic)
- EC50 (Androgen receptor [2]): 5.9 nM
- Ki (Androgen receptor [3]): 8.3 nM

SMILES: CSCC1COc2cc3[nH]c(=O)cc(C(F)(F)F)c3cc2N1CC(F)(F)F (racemic)
- IC50 (Androgen receptor [1]): 25 nM
- EC50 (Androgen receptor [2]): 28 nM

SMILES: O=c1cc(C(F)(F)F)c2cc3c(cc2[nH]1)OC[C@@H](CF)N3CC(F)(F)F
- IC50 (Androgen receptor [1]): 199 nM
- EC50 (Androgen receptor [2]): 35 nM
- Ki (Androgen receptor [3]): 32 nM

SMILES: O=c1cc(C(F)(F)F)c2cc3c(cc2[nH]1)OC[C@@H](CO)N3CC(F)(F)F
- IC50 (Androgen receptor [1]): 60 nM
- EC50 (Androgen receptor [2]): 11 nM
- Ki (Androgen receptor [3]): 15 nM

From ChEMBL document CHEMBL1145608, “Selective androgen receptor modulators based on a series of 7H-[1,4]oxazino[3,2-g]quinolin-7-ones with improved in vivo activity” (Bioorg Med Chem Lett, 2008)
